# Measured values: patent US4657928A, “Organic copper complexes as radioprotectants” (priority 1984, dated 1987)
# Where two headings read alike, the source gives them in different places.
# Assays:
# [1] = SOD-like activity: inhibition of superoxide reduction of nitroblue tetrazolium (DMSO-KO2 / xanthine-xanthine oxidase); assay type: biochemical; conditions: for IC50 / Percent Reactivity (SOD-like activity): Table I; for IC50: read-out: Concentration: compound required for 50% inhibition of superoxide reduction of nitroblue tetrazolium; for Percent Reactivity (SOD-like activity): relative to Cu-Zn SOD = 100
# [2] = cited from earlier work
# [3] = pH 12; cited from earlier work
# [4] = pH 7.0; cited from earlier work
# [5] = tested on: patients; conditions: ongoing clinical trials; cited from earlier work
# [6] = tested on: rats; experiment: Acute toxicity in rats (subcutaneous); assay type: in vivo
# Procedure: (§1) The particular embodiment described in complete detail herein concerns the use of Cu(II)(3,5-dips)2. […] A minimum prophylatic dose would be about 0.001 mg/kg, while a therapeutic dose would range from about 1 mg to 100 mg/kg, depending upon the radiation dose. Therapeutic doses would be initiated about two weeks before radiotherapy, and would continue as necessary after the radiation treatment. For cases of accidental exposure, treatment would be initiated immediately after exposure and continued as necessary thereafter. Prophylactic doses would be taken on a continuing basis, for example a daily basis, as long as the recurrent radiation exposure continued. In any of these cases, the route of administration might be oral, topical, rectal or parenteral (e.g., intramuscular, intravenous, subcutaneous, or intraperitoneal).
# Copper 3,5-diisopropylsalicylate was synthesized according to the method of Sorenson, J. Med. Chem. 19:135 (1976), which is incorporated herein by reference.
# [7] = tested on: human beings; experiment: Predicted toxicity in human beings by extrapolation; conditions: per body weight
# Procedure: as §1
# [8] = Rate of superoxide dismutation; assay type: biochemical; conditions: Table I
# Excerpt: The enzyme superoxide dismutase (SOD) plays a significant role in the defense against oxygen toxicity in aerobic organisms. Superoxide dismutase catalyzes the dismutation of O2^-, as follows:.
# 2 ^- O-O^. +2H^+ →H2 O2 +^. O-O^.
# **Weser, et al., In "Inflammatory Diseases and Copper", Sorenson (ed.),
# Humana Press: Clifton, New Jersey (1982), p. 513
# [9] = tested on: lethally irradiated mice; experiment: Radioprotection: survival of lethally irradiated (60Co) mice; assay type: in vivo, female B6CBFl mice
# Procedure: One group of 22-control and two groups of 24-treated 8 to 10 week old female B6CBFl mice (Cumberland View Farms, Clinton, Tennessee) were used. Control animals were given a subcutaneous (sc) injection of 0.3 ml of vehicle (0.25% Tween 80 in 0.9% pyrogen-free sterile saline) 24 hours before irradiation. One treatment group was given a single sc injection of 0.49 mM/kg of Cu(II)(3,5-dips)2 in 0.3 ml of vehicle 3 hours before irradiation and the other group was given the same treatment 24 hours before irradiation.
# This radiation dose was measured with an electrometer connected to 0.05 ml NBS calibrated ion chambers positioned inside wax phantom mice placed in plexiglass cages. The tissue to air ratio for these phantom mice has been determined to be 97 percent. Control and treated mice were housed 5 mice per cage and fed mouse chow and water ad libitum for the 30 day observation period.
# [10] = tested on: mice; experiment: Acute toxicity in mice (subcutaneous); assay type: in vivo; conditions: subcutaneous injection, 10080 min
# Procedure: as §1
# [11] = 0.49 mM/kg sc 3 hours before 10 Gy, 30 day observation
# [12] = 0.49 mM/kg sc 24 hours before 10 Gy, 30 day observation
compound,measurement,setting,value
CC(=O)Oc1ccccc1C(=O)[O-].CC(=O)Oc1ccccc1C(=O)[O-].CC(=O)Oc1ccccc1C(=O)[O-].CC(=O)Oc1ccccc1C(=O)[O-].CS(C)=O.CS(C)=O.[Cu+2].[Cu+2] [Cu(II)2 (acetylsalicylate)4 (DMSO)2],IC50,[1],2800 nM
same,Percent Reactivity (SOD-like activity),[1],0.69%
CC(=O)Oc1ccccc1C(=O)[O-].CC(=O)Oc1ccccc1C(=O)[O-].CC(=O)Oc1ccccc1C(=O)[O-].CC(=O)Oc1ccccc1C(=O)[O-].CS(C)=O.CS(C)=O.CS(C)=O.CS(C)=O.[Cu+2].[Cu+2] [Cu(II)2 (acetylsalicylate)4 (dimethylsulfoxide)4],superoxide scavenging (in words),[1],superoxide scavengers
CC(=O)Oc1ccccc1C(=O)[O-].CC(=O)Oc1ccccc1C(=O)[O-].CC(=O)Oc1ccccc1C(=O)[O-].CC(=O)Oc1ccccc1C(=O)[O-].[Cu+2].[Cu+2].c1ccncc1.c1ccncc1 [Cu(II)2 (acetylsalicylate)4 (pyridine)2],IC50,[1],2700 nM
same,Percent Reactivity (SOD-like activity),[1],0.32%
CC(=O)Oc1ccccc1C(=O)[O-].CC(=O)Oc1ccccc1C(=O)[O-].CC(=O)Oc1ccccc1C(=O)[O-].CC(=O)Oc1ccccc1C(=O)[O-].[Cu+2].[Cu+2].c1ccncc1.c1ccncc1.c1ccncc1.c1ccncc1 [Cu(II)2 (acetylsalicylate)4 (pyridine)4],superoxide scavenging (in words),[1],superoxide scavengers
"CC(C)(C)c1cc(C(=O)[O-])c(O)c(C(C)(C)C)c1.CC(C)(C)c1cc(C(=O)[O-])c(O)c(C(C)(C)C)c1.[Cu+2] [Cu(II)(3,5-ditertiarybutylsalicylate)2]",superoxide scavenging (in words),[1],superoxide scavengers
same,IC50,[1],6200 nM
same,Percent Reactivity (SOD-like activity),[1],0.74%
O=C(O)c1ccccc1[O-].O=C(O)c1ccccc1[O-].[Cu+2] [Cu(II)(salicylate)2],superoxide scavenging (in words),[1],superoxide scavengers
same,IC50,[1],4600 nM
same,Percent Reactivity (SOD-like activity),[1],0.65%
same,Rate of superoxide dismutation,"[2]; Table I, footnote ** (Weser et al.)",1.6 × 10 M^-1 s^-1
O=C([O-])CN(CCN(CC(=O)[O-])CC(=O)O)CC(=O)O.[Na+].[Na+] [Na2 EDTA],"Rate, Cu(II)(L)2 + e^- aq",[3],1e+10 M⁻¹ s⁻¹
same,"Rate, Cu(II)(L)2 + HO^.",[4],4e+09 M⁻¹ s⁻¹
"NCCCNCCSP(=O)(O)O [WR2721, S-2-(3-aminopropylamino) ethyl-phosphorothioic acid]",undesirable side effects,[5],"emesis, hypertension, hypotension, somnolence and allergy"
Cu(II)2 (acetylsalicylate)4,superoxide scavenging (in words),[1],superoxide scavengers
same,IC50,[1],3100 nM
same,Percent Reactivity (SOD-like activity),[1],0.043%
bovine SOD: pure bovine SOD,"sensitivity of the assay, ug SOD per unit of activity","[1]; pure bovine SOD, per unit of activity, pH 7.8",0.85 µg
"copper 3,5-diisopropylsalicylate [Cu(II)(3,5-dips)2]",LD50,[6]; subcutaneous,240 +33 mg/kg
same,LD50/7,"[6]; subcutaneous injection, 10080 min",240 mg/kg
same,predicted LD50 in human beings,[7],approximately 250 mg/kg
same,superoxide scavenging (in words),[1],superoxide scavengers
same,IC50,[1],2900 nM
same,efficiency in disproportionating superoxide compared with Cu-Zn SOD (in words),[1]; based on Table I,not as efficient as Cu-Zn SOD
same,mean SOD activity,"[1]; modified assay, DMSO-KO2, pH 7.8","17,400±1,800 units per milligram"
same,Percent Reactivity (SOD-like activity),[1],0.70%
same,Rate of superoxide dismutation,[8],1e+09 to 2e+09 M⁻¹ s⁻¹
same,day post-irradiation after which none died,[9]; 0.49 mM/kg sc 3 hours before 10 Gy,18 days
same,number of surviving mice,[9]; [11],8 mice
same,survival,[9]; [11],Thirty-three
same,day post-irradiation after which none died,[9]; 0.49 mM/kg sc 24 hours before 10 Gy,19 days
same,number of surviving mice,[9]; [12],14 mice
same,survival,[9]; [12],Fifty-eight
same,survival,"[9]; pretreatment interval 3 h, restated in comparison with Cu-Zn SOD",33%
same,survival,"[9]; pretreatment interval 24 h, restated in comparison with Cu-Zn SOD",58%
same,survivors,"[9]; similarly treated mice, irradiated with 12 Gy",no survivors
same,protection compared with Cu-Zn SOD (in words),"[9]; vs Cu-Zn SOD data of Petkau, different conditions",much greater protection
same,LD50/7,[10],at least 280 mg/kg
"superoxide dismutase: enzyme that catalyzes the dismutation of O2^-; native SOD has a molecular weight of about 32,000 daltons","rate of O2^- dismutation, k",[2]; Czapski 1971,1.3e+09 M⁻¹ s⁻¹
